Experimental data from ChEMBL document CHEMBL5352399, “(1R,3S)-THCCA-Asn: To show the discovery of selective inhibitor of thrombin by successfully combining virtual screening and biological assay” (Eur J Med Chem, 2022).
Activity calls are given as the source filed them. The calls are words filed in the database; no cut-off is given here.

Columns and labels:
Rattus norvegicus [1] = experiment: Antithrombotic activity in Wistar rat model assessed as thrombus weight at 1 nmol/kg, po by polyethylene tube based method; type: functional
Platelet [2] = experiment: Anti-platelet aggregation activity in Sprague-Dawley rat platelet rich plasma assessed as inhibition of AA-induced aggregation preincubated with compound followed by AA addition measured after 5 mins by two channel chronology aggregometry; type: functional, cell-based
Platelet [3] = experiment: Anti-platelet aggregation activity in Sprague-Dawley rat platelet rich plasma assessed as inhibition of PAF-induced aggregation preincubated with compound followed by PAF addition measured after 5 mins by two channel chronology aggregometry; type: functional, cell-based
Platelet [4] = experiment: Anti-platelet aggregation activity in Sprague-Dawley rat platelet rich plasma assessed as inhibition of ADP-induced aggregation preincubated with compound followed by ADP addition measured after 5 mins by two channel chronology aggregometry; type: functional, cell-based
[5] = Anti-platelet aggregation activity in Sprague-Dawley rat platelet rich plasma assessed as inhibition of TH-induced aggregation preincubated with compound followed by TH addition measured after 5 mins by two channel chronology aggregometry; type: functional, cell-based
Rattus norvegicus [6] = experiment: Antithrombotic activity in Wistar rat model assessed as thrombus weight at 10 nmol/kg, po by polyethylene tube based method; type: functional
[7] = Cytotoxicity activity against human L02 cells assessed as cell growth inhibition incubated for 48 hrs by CCK-8 assay; type: toxicity, cell-based
[8] = Cytotoxicity activity against human NCM460 cells assessed as cell growth inhibition incubated for 48 hrs by CCK-8 assay; type: toxicity, cell-based
[9] = Cytotoxicity activity against human NHDF cells assessed as cell growth inhibition incubated for 48 hrs by CCK-8 assay; type: toxicity, cell-based
[10] = Toxicity in rat thrombosis model assessed as change in tail bleeding time at 1 nmol/kg, po by tail bleeding time assay; type: organism-based; details: in vivo
[11] = Toxicity in rat thrombosis model assessed as change in tail bleeding time at 0.01 nmol/kg, po by tail bleeding time assay; type: organism-based; details: in vivo
[12] = Toxicity in rat thrombosis model assessed as change in tail bleeding time at 0.001 nmol/kg, po by tail bleeding time assay; type: organism-based; details: in vivo
[13] = Toxicity in rat thrombosis model assessed as bleeding in brain at 0.001 to 1 nmol/kg, po; type: tissue-based; details: in vivo, dose 0.001-1 nmol/kg
[14] = Toxicity in rat thrombosis model assessed as bleeding in thoracic cavity at 0.001 to 1 nmol/kg, po; details: in vivo, dose 0.001-1 nmol/kg
[15] = Toxicity in rat thrombosis model assessed as bleeding in inferior cavity at 0.001 to 1 nmol/kg, po; details: in vivo, dose 0.001-1 nmol/kg
Rattus norvegicus [16] = experiment: Anti-arterial thrombosis activity in po dosed male Wister rat thrombogenesis model assessed as thrombus weight by polyethylene tube based method; type: functional, organism-based; details: dose 0.001-1 nmol/kg

For COC(=O)c1cc([C@H]2N[C@H](C(=O)N[C@@H](CC(C)C)C(=O)O)Cc3c2[nH]c2ccccc32)ccc1O, the Activity (Rattus norvegicus [1]) was 23.69 mg, the inhibition (Platelet [2]) was “inactive” and the inhibition (Platelet [3]) was “inactive”. The inhibition (Platelet [4]) was “inactive” and the IC50 [5] was 1750 nM.
For COC(=O)c1cc([C@H]2N[C@H](C(=O)N[C@@H](Cc3ccccc3)C(=O)O)Cc3c2[nH]c2ccccc32)ccc1O, the Activity (Rattus norvegicus [1]) was 23.69 mg, the inhibition (Platelet [2]) was “inactive” and the inhibition (Platelet [3]) was “inactive”. For the same compound, the inhibition (Platelet [4]) was “inactive” and the IC50 [5] was 1750 nM.
In the case of COC(=O)c1cc([C@H]2N[C@H](C(=O)N[C@@H](CCC(N)=O)C(=O)O)Cc3c2[nH]c2ccccc32)ccc1O, the Activity (Rattus norvegicus [1]) is reported as 21.66 mg, the inhibition (Platelet [2]) is reported as “inactive” and the inhibition (Platelet [3]) is reported as “inactive”. For the same compound, the inhibition (Platelet [4]) was “inactive” and the IC50 [5] was 230 nM.
In the case of COC(=O)c1cc([C@H]2N[C@H](C(=O)N[C@@H](C)C(=O)O)Cc3c2[nH]c2ccccc32)ccc1O, the Activity (Rattus norvegicus [1]) is reported as 21.66 mg, the inhibition (Platelet [2]) is reported as “inactive” and the inhibition (Platelet [3]) is reported as “inactive”. The inhibition (Platelet [4]) was “inactive” and the IC50 [5] was 230 nM.
For COC(=O)c1cc([C@H]2N[C@H](C(=O)O)Cc3c2[nH]c2ccccc32)ccc1O, the Activity (Rattus norvegicus [6]) was 23.17 mg.
With CC[C@H](C)[C@H](NC(=O)[C@@H]1Cc2c([nH]c3ccccc23)[C@@H](c2ccc(O)c(C(=O)OC)c2)N1)C(=O)O the Activity (Rattus norvegicus [1]) was 21.66 mg, the inhibition (Platelet [2]) was “inactive” and the inhibition (Platelet [3]) was “inactive”. The inhibition (Platelet [4]) was “inactive” and the IC50 [5] was 230 nM.
For COC(=O)c1cc([C@H]2N[C@H](C(=O)N[C@@H](CO)C(=O)O)Cc3c2[nH]c2ccccc32)ccc1O, the Activity (Rattus norvegicus [1]) was 19.19 mg, the inhibition (Platelet [2]) was “inactive” and the inhibition (Platelet [3]) was “inactive”. The inhibition (Platelet [4]) was “inactive” and the IC50 [5] was 70 nM.
In the case of COC(=O)c1cc([C@H]2N[C@H](C(=O)NCC(=O)O)Cc3c2[nH]c2ccccc32)ccc1O, the Activity (Rattus norvegicus [1]) is reported as 23.69 mg, the inhibition (Platelet [2]) is reported as “inactive” and the inhibition (Platelet [3]) is reported as “inactive”. For the same compound, the inhibition (Platelet [4]) was “inactive” and the IC50 [5] was 1750 nM.
With COC(=O)c1cc([C@H]2N[C@H](C(=O)N[C@@H](CCCNC(=N)N)C(=O)O)Cc3c2[nH]c2ccccc32)ccc1O the Activity (Rattus norvegicus [1]) was 21.66 mg, the inhibition (Platelet [2]) was “inactive” and the inhibition (Platelet [3]) was “inactive”. For the same compound, the inhibition (Platelet [4]) was “inactive” and the IC50 [5] was 230 nM.
With COC(=O)c1cc([C@H]2N[C@H](C(=O)N[C@@H](CCCCN)C(=O)O)Cc3c2[nH]c2ccccc32)ccc1O the Activity (Rattus norvegicus [1]) was 19.19 mg, the inhibition (Platelet [2]) was “inactive” and the inhibition (Platelet [3]) was “inactive”. For the same compound, the inhibition (Platelet [4]) was “inactive” and the IC50 [5] was 70 nM.
With COC(=O)c1cc([C@H]2N[C@H](C(=O)N[C@@H](CC(N)=O)C(=O)O)Cc3c2[nH]c2ccccc32)ccc1O the Activity (Rattus norvegicus [1]) was 19.19 mg, the inhibition (Platelet [2]) was “inactive” and the inhibition (Platelet [3]) was “inactive”. For the same compound, the inhibition (Platelet [4]) was “inactive”, the IC50 [5] was 70 nM and the IC50 at 48 h [7] was > 125 µM. The IC50 at 48 h [8] was > 125 µM, the IC50 at 48 h [9] was > 125 µM and the Activity [10] was “Non-Toxic”. For the same compound, the Activity [11] was “Non-Toxic”, the Activity [12] was “Non-Toxic” and the Activity [13] was “Non-Toxic”. The Activity [14] was “Non-Toxic”, the Activity [15] was “Non-Toxic” and the Activity (Rattus norvegicus [16]) was “Dose-Dependent Effect”.
In the case of COC(=O)c1cc([C@H]2N[C@H](C(=O)N[C@H](C(=O)O)C(C)C)Cc3c2[nH]c2ccccc32)ccc1O, the Activity (Rattus norvegicus [1]) is reported as 23.69 mg, the inhibition (Platelet [2]) is reported as “inactive” and the inhibition (Platelet [3]) is reported as “inactive”. The inhibition (Platelet [4]) was “inactive” and the IC50 [5] was 230 nM.
With COC(=O)c1cc([C@H]2N[C@H](C(=O)N[C@@H](CC(=O)O)C(=O)O)Cc3c2[nH]c2ccccc32)ccc1O the Activity (Rattus norvegicus [1]) was 23.69 mg, the inhibition (Platelet [2]) was “inactive” and the inhibition (Platelet [3]) was “inactive”. The inhibition (Platelet [4]) was “inactive” and the IC50 [5] was 1750 nM.
In the case of COC(=O)c1cc([C@H]2N[C@H](C(=O)N[C@@H](Cc3c[nH]c4ccccc34)C(=O)O)Cc3c2[nH]c2ccccc32)ccc1O, the Activity (Rattus norvegicus [1]) is reported as 21.66 mg, the inhibition (Platelet [2]) is reported as “inactive” and the inhibition (Platelet [3]) is reported as “inactive”. The inhibition (Platelet [4]) was “inactive” and the IC50 [5] was 230 nM.
In the case of COC(=O)c1cc([C@H]2N[C@H](C(=O)N[C@@H](Cc3ccc(O)cc3)C(=O)O)Cc3c2[nH]c2ccccc32)ccc1O, the Activity (Rattus norvegicus [1]) is reported as 19.19 mg, the inhibition (Platelet [2]) is reported as “inactive” and the inhibition (Platelet [3]) is reported as “inactive”. The inhibition (Platelet [4]) was “inactive” and the IC50 [5] was 70 nM.
For COC(=O)c1cc([C@H]2N[C@H](C(=O)N[C@@H](CCC(=O)O)C(=O)O)Cc3c2[nH]c2ccccc32)ccc1O, the Activity (Rattus norvegicus [1]) was 23.69 mg, the inhibition (Platelet [2]) was “inactive” and the inhibition (Platelet [3]) was “inactive”. The inhibition (Platelet [4]) was “inactive” and the IC50 [5] was 1750 nM.
For COC(=O)c1cc([C@H]2N[C@H](C(=O)N[C@H](C(=O)O)[C@@H](C)O)Cc3c2[nH]c2ccccc32)ccc1O, the Activity (Rattus norvegicus [1]) was 23.69 mg, the inhibition (Platelet [2]) was “inactive” and the inhibition (Platelet [3]) was “inactive”. For the same compound, the inhibition (Platelet [4]) was “inactive” and the IC50 [5] was 1750 nM.
